Assay results: the NIST ThermoML archive (doi:10.1016/j.jct.2015.06.024)

Assay: mn = molality of the nth substance listed, in mol/kg
Details: 84.5 kPa, Liquid; for speed of sound: Frequency=3 MHz, Sing-around technique in a fixed-path interferometer; for mass density: Vibrating tube method

O=C(O)[C@@H]1CCCN1 [L-proline] + O
Details | mass density, 288.15 K [kg/m3] | mass density, 293.15 K [kg/m3] | mass density, 298.15 K [kg/m3] | mass density, 303.15 K [kg/m3] | mass density, 308.15 K [kg/m3] | speed of sound, 288.15 K [m/s] | speed of sound, 293.15 K [m/s] | speed of sound, 298.15 K [m/s] | speed of sound, 303.15 K [m/s] | speed of sound, 308.15 K [m/s]
m1 = 0.04355 | 1000.55 | 999.631 | 998.453 | 997.041 | 995.413 | 1470.3 | 1486.1 | 1500.1 | 1512.3 | 1522.8
m1 = 0.05237 | 1000.84 | 999.916 | 998.737 | 997.322 | 995.693 | 1471 | 1486.8 | 1500.8 | 1512.9 | 1523.4
m1 = 0.06122 | 1001.13 | 1000.21 | 999.025 | 997.607 | 995.975 | 1471.7 | 1487.6 | 1501.5 | 1513.6 | 1524
m1 = 0.06959 | 1001.41 | 1000.48 | 999.295 | 997.877 | 996.241 | 1472.5 | 1488.2 | 1502.1 | 1514.2 | 1524.6
m1 = 0.07882 | 1001.71 | 1000.78 | 999.588 | 998.167 | 996.529 | 1473.2 | 1488.9 | 1502.8 | 1514.8 | 1525.2
m1 = 0.08768 | 1002 | 1001.07 | 999.877 | 998.452 | 996.813 | 1474 | 1489.6 | 1503.5 | 1515.4 | 1525.8
m1 = 0.09661 | 1002.3 | 1001.36 | 1000.16 | 998.734 | 997.093 | 1474.7 | 1490.3 | 1504.1 | 1516.1 | 1526.4
m1 = 0.1056 | 1002.59 | 1001.65 | 1000.45 | 999.02 | 997.377 | 1475.4 | 1491 | 1504.7 | 1516.7 | 1526.9
m1 = 0.1234 | 1003.17 | 1002.23 | 1001.02 | 999.585 | 997.937 | 1476.8 | 1492.3 | 1506 | 1517.9 | 1528.1
m1 = 0.1414 | 1003.76 | 1002.8 | 1001.59 | 1000.15 | 998.498 | 1478.3 | 1493.7 | 1507.3 | 1519.1 | 1529.3
m1 = 0.1591 | 1004.34 | 1003.37 | 1002.15 | 1000.71 | 999.051 | 1479.8 | 1495.2 | 1508.7 | 1520.5 | 1530.6
m1 = 0.1775 | 1004.93 | 1003.96 | 1002.74 | 1001.28 | 999.622 | 1481.3 | 1496.6 | 1510.1 | 1521.8 | 1531.8
m1 = 0.1955 | 1005.51 | 1004.53 | 1003.3 | 1001.85 | 1000.18 | 1482.8 | 1498 | 1511.4 | 1523 | 1533
m1 = 0.2134 | 1006.09 | 1005.1 | 1003.87 | 1002.4 | 1000.73 | 1484.2 | 1499.4 | 1512.6 | 1524.2 | 1534.1

CCO [ethanol] + O
Details | mass density, 288.15 K [kg/m3] | mass density, 293.15 K [kg/m3] | mass density, 298.15 K [kg/m3] | mass density, 303.15 K [kg/m3] | mass density, 308.15 K [kg/m3] | speed of sound, 288.15 K [m/s] | speed of sound, 293.15 K [m/s] | speed of sound, 298.15 K [m/s] | speed of sound, 303.15 K [m/s] | speed of sound, 308.15 K [m/s]
m1 = 0.02159 | 998.9 | 998.003 | 996.845 | 995.446 | 993.829 | 1467.4 | 1483.4 | 1497.5 | 1509.8 | 1520.4
m1 = 0.04347 | 998.707 | 997.81 | 996.654 | 995.257 | 993.639 | 1468.2 | 1484.2 | 1498.2 | 1510.5 | 1521
m1 = 0.06495 | 998.526 | 997.632 | 996.474 | 995.076 | 993.46 | 1469.1 | 1485 | 1498.9 | 1511.1 | 1521.6
m1 = 0.08646 | 998.318 | 997.424 | 996.265 | 994.87 | 993.243 | 1470 | 1485.8 | 1499.7 | 1511.7 | 1522.2
m1 = 0.1087 | 998.132 | 997.24 | 996.081 | 994.683 | 993.05 | 1470.8 | 1486.5 | 1500.4 | 1512.4 | 1522.8
m1 = 0.1306 | 997.942 | 997.051 | 995.892 | 994.494 | 992.873 | 1471.7 | 1487.3 | 1501.1 | 1513 | 1523.3
m1 = 0.1749 | 997.562 | 996.671 | 995.508 | 994.111 | 992.498 | 1473.4 | 1488.9 | 1502.5 | 1514.2 | 1524.4
m1 = 0.2188 | 997.195 | 996.303 | 995.144 | 993.747 | 992.123 | 1475 | 1490.4 | 1503.8 | 1515.5 | 1525.5

CCCO [propan-1-ol] + O
Details | mass density, 288.15 K [kg/m3] | mass density, 293.15 K [kg/m3] | mass density, 298.15 K [kg/m3] | mass density, 303.15 K [kg/m3] | mass density, 308.15 K [kg/m3] | speed of sound, 288.15 K [m/s] | speed of sound, 293.15 K [m/s] | speed of sound, 298.15 K [m/s] | speed of sound, 303.15 K [m/s] | speed of sound, 308.15 K [m/s]
m1 = 0.01666 | 998.928 | 998.029 | 996.868 | 995.468 | 993.851 | 1467.6 | 1483.5 | 1497.7 | 1509.9 | 1520.5
m1 = 0.03333 | 998.757 | 997.859 | 996.698 | 995.295 | 993.677 | 1468.6 | 1484.5 | 1498.5 | 1510.7 | 1521.3
m1 = 0.0494 | 998.594 | 997.697 | 996.534 | 995.132 | 993.506 | 1469.5 | 1485.4 | 1499.3 | 1511.5 | 1521.9
m1 = 0.06674 | 998.419 | 997.52 | 996.356 | 994.954 | 993.328 | 1470.6 | 1486.4 | 1500.3 | 1512.3 | 1522.7
m1 = 0.08313 | 998.254 | 997.355 | 996.19 | 994.787 | 993.156 | 1471.7 | 1487.3 | 1501.1 | 1513.1 | 1523.3
m1 = 0.1002 | 998.081 | 997.18 | 996.013 | 994.609 | 992.983 | 1472.7 | 1488.3 | 1502 | 1513.8 | 1524
m1 = 0.134 | 997.747 | 996.843 | 995.676 | 994.267 | 992.634 | 1474.8 | 1490.1 | 1503.6 | 1515.4 | 1525.4
m1 = 0.1662 | 997.429 | 996.526 | 995.356 | 993.945 | 992.305 | 1476.8 | 1491.9 | 1505.3 | 1516.9 | 1526.8

CCCCO [butan-1-ol] + O
Details | mass density, 288.15 K [kg/m3] | mass density, 293.15 K [kg/m3] | mass density, 298.15 K [kg/m3] | mass density, 303.15 K [kg/m3] | mass density, 308.15 K [kg/m3] | speed of sound, 288.15 K [m/s] | speed of sound, 293.15 K [m/s] | speed of sound, 298.15 K [m/s] | speed of sound, 303.15 K [m/s] | speed of sound, 308.15 K [m/s]
m1 = 0.01342 | 998.939 | 998.039 | 996.876 | 995.476 | 993.859 | 1467.6 | 1483.6 | 1497.7 | 1510 | 1520.6
m1 = 0.02701 | 998.774 | 997.873 | 996.708 | 995.306 | 993.686 | 1468.7 | 1484.7 | 1498.7 | 1510.9 | 1521.3
m1 = 0.04053 | 998.614 | 997.712 | 996.547 | 995.143 | 993.508 | 1469.9 | 1485.7 | 1499.6 | 1511.7 | 1522.2
m1 = 0.05431 | 998.455 | 997.552 | 996.384 | 994.976 | 993.352 | 1471 | 1486.7 | 1500.5 | 1512.5 | 1522.9
m1 = 0.06771 | 998.296 | 997.389 | 996.218 | 994.809 | 993.182 | 1472.1 | 1487.7 | 1501.4 | 1513.3 | 1523.6
m1 = 0.08132 | 998.137 | 997.231 | 996.058 | 994.647 | 992.992 | 1473.1 | 1488.6 | 1502.3 | 1514.1 | 1524.4
m1 = 0.1063 | 997.846 | 996.934 | 995.757 | 994.341 | 992.707 | 1475.1 | 1490.5 | 1504 | 1515.7 | 1525.7
m1 = 0.1358 | 997.518 | 996.602 | 995.417 | 993.998 | 992.357 | 1477.4 | 1492.5 | 1505.8 | 1517.4 | 1527.2
